Results published in patent publication US20240358659A1, “Uses of Propranolol for Managing Viral Infections” (Emory University, priority 2021, published 2024).

Key:
[1] = test system: SARS-CoV-2; conditions: incubation of SARS-CoV-2 with compound for 1 hr at 37° C., plaque assay
[2] = test system: SARS-CoV-2; experiment: viral load reduction assay in human lung epithelial (Calu) cells (RT-qPCR of released genome copies); format: cell-based; conditions: MOI 1, 150 uM, 16 h pi
[3] = test system: SARS-CoV-2; experiment: viral load reduction assay in Vero E6 cells (RT-qPCR of released genome copies); format: cell-based
[4] = test system: SARS-CoV-2; experiment: time of addition assay in Vero cells, plaque assay; format: cell-based; conditions: infectious particles by plaque assay at 16 h pi

With `CC(C)NC[C@@H](O)COc1cccc2ccccc12` [R-propranolol, (R)-(+)-1-(isopropylamino)-3-(naphthalen-1-yloxy)propan-2-ol] the “reduction of infectivity of virus particles (virucidal activity)” value [1] was “does not reduce infectivity of virus particles”, the “reduction in extracellular SARS-CoV-2 genome copies” value [2] was “about 1.5 log” and the “efficacy in viral load reduction compared with remdesivir” value ([3]; 25 uM) was “approximately the same efficacy as remdesivir”. The “reduction in extracellular SARS-CoV-2 genome copies” value ([3]; MOI 1, 50 uM, 16 h post-infection) was ~2.5 log and the “reduction of viral load by time of addition” value [4] was “highest reduction of viral load upon pre-treatment”.
